According to patent US10213427B2 (Incyte Corporation, priority 2010, dated 2019):

target: FGFR3 enzyme (Millipore) (Homo sapiens (Human), UniProt P22607); assay: FGFR3 Enzymatic Assay; type: biochemical; conditions: FRET peptide phosphorylation, 140 μM ATP
Procedure: The inhibitor potency of compounds of the invention was measured in an enzyme assay that measures peptide phosphorylation using FRET measurements to detect product formation. Inhibitors were serially diluted in DMSO and a volume of 0.5 μL was transferred to the wells of a 384-well plate. A 10 μL volume of FGFR3 enzyme (Millipore) diluted in assay buffer (50 mM HEPES, 10 mM MgCl2, 1 mM EGTA, 0.01% Tween-20, 5 mM DTT, pH 7.5) was added to the plate and pre-incubated for 5-10 minutes. Appropriate controls (enzyme blank and enzyme with no inhibitor) were included on the plate. […] The plate was incubated at 25° C. for 1 hr. […] The plate was allowed to equilibrate for ˜1 hr before scanning the wells on a PheraStar plate reader.
GraphPad prism3 was used to analyze the data. The IC50 values were derived by fitting the data to the equation for a sigmoidal dose-response with a variable slope. Y=Bottom+(Top−Bottom)/(1+10^((Log IC50−X)*HillSlope)) where X is the logarithm of concentration and Y is the response.

Chain of FGFR3 enzyme (Millipore) (P22607 23-806): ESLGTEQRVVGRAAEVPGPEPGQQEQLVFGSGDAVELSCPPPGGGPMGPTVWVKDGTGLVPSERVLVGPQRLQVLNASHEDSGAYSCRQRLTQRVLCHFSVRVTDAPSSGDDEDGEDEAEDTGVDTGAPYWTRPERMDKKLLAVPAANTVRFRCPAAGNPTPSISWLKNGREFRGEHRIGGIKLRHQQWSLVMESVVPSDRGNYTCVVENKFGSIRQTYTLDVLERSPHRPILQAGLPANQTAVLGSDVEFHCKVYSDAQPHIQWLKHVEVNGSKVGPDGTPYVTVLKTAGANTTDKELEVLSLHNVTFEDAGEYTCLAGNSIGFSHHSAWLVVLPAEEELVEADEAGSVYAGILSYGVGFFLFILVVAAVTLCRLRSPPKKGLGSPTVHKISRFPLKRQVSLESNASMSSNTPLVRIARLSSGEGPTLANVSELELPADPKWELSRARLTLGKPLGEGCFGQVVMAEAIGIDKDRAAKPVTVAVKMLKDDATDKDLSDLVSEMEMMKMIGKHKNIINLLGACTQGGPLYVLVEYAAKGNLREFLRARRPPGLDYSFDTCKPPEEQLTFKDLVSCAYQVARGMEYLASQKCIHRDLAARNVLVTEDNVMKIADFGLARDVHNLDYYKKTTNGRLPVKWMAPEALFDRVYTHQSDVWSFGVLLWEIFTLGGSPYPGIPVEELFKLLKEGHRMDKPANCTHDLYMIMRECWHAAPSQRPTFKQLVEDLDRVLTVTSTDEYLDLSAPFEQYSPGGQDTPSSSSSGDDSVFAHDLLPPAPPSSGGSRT

SMILES	IC50
COCC(=O)N1CCC(n2cc(-c3cnn4c(-c5cccc(NC(=O)NCC(F)(F)F)c5)cnc4c3)cn2)CC1 [Example 30, N-[3-(7-{1-[1-(Methoxyacetyl)piperidin-4-yl]-1H-pyrazol-4-yl}imidazo[1,2-b]pyridazin-3-yl)phenyl]-N′-(2,2,2-trifluoroethyl)urea]	< 0.01 µM
Cn1ccc(S(=O)(=O)N2CCC(n3cc(-c4cnn5c(-c6cccc(NC(=O)NCC(F)(F)F)c6)cnc5c4)cn3)CC2)n1 [Example 31, N-{3-[7-(1-{1-[(1-methyl-1H-pyrazol-3-yl)sulfonyl]piperidin-4-yl}-1H-pyrazol-4-yl)imidazo[1,2-b]pyridazin-3-yl]phenyl}-N′-(2,2,2-trifluoroethyl)urea]	< 0.01 µM
Cn1cc(C(=O)N2CCC(n3cc(-c4cnn5c(-c6cccc(NC(=O)NCC(F)(F)F)c6)cnc5c4)cn3)CC2)cn1 [Example 32, N-{3-[7-(1-{1-[(1-Methyl-1H-pyrazol-4-yl)carbonyl]piperidin-4-yl}-1H-pyrazol-4-yl)imidazo[1,2-b]pyridazin-3-yl]phenyl}-N′-(2,2,2-trifluoroethyl)urea]	< 0.01 µM
CN(C)CC(=O)N1CCC(n2cc(-c3cnn4c(-c5cccc(NC(=O)NCC(F)(F)F)c5)cnc4c3)cn2)CC1 [Example 33, N-{3-[7-(1-{1-[(Dimethylamino)acetyl]piperidin-4-yl}-1H-pyrazol-4-yl)imidazo[1,2-b]pyridazin-3-yl]phenyl}-N′-(2,2,2-trifluoroethyl)urea]	< 0.01 µM
O=C(NCC(F)(F)F)Nc1cccc(-c2cnc3cc(-c4cnn(C5CCN(S(=O)(=O)Cc6ccccc6)CC5)c4)cnn23)c1 [Example 34, N-[3-(7-{1-[1-(Benzylsulfonyl)piperidin-4-yl]-1H-pyrazol-4-yl}imidazo[1,2-b]pyridazin-3-yl)phenyl]-N′-(2,2,2-trifluoroethyl)urea]	< 0.01 µM
O=C(NCC(F)(F)F)Nc1cccc(-c2cnc3cc(-c4cnn(C5CCN(C(=O)CC6CCCC6)CC5)c4)cnn23)c1 [Example 35, N-[3-(7-{1-[1-(cyclopentylacetyl)piperidin-4-yl]-1H-pyrazol-4-yl}imidazo[1,2-b]pyridazin-3-yl)phenyl]-N′-(2,2,2-trifluoroethyl)urea]	< 0.01 µM
O=C(NCC(F)(F)F)Nc1cccc(-c2cnc3cc(-c4cnn(C5CCN(C(=O)N6CCCC6)CC5)c4)cnn23)c1 [Example 36, N-[3-(7-{1-[1-(Pyrrolidin-1-ylcarbonyl)piperidin-4-yl]-1H-pyrazol-4-yl}imidazo[1,2-b]pyridazin-3-yl)phenyl]-N′-(2,2,2-trifluoroethyl)urea]	< 0.01 µM
O=C(NCC(F)(F)F)Nc1cccc(-c2cnc3cc(-c4cnn(C5CCN(C(=O)N6CCOCC6)CC5)c4)cnn23)c1 [Example 37, N-[3-(7-{1-[1-(morpholin-4-ylcarbonyl)piperidin-4-yl]-1H-pyrazol-4-yl}imidazo[1,2-b]pyridazin-3-yl)phenyl]-N′-(2,2,2-trifluoroethyl)urea]	< 0.01 µM
O=C(NCC(F)(F)F)Nc1cccc(-c2cnc3cc(-c4cnn(C5CCN(C(=O)Nc6cccnc6)CC5)c4)cnn23)c1 [Example 38, N-Pyridin-3-yl-4-(4-{3-[3-({[(2,2,2-trifluoroethyl)amino]carbonyl}amino)phenyl]imidazo[1,2-b]pyridazin-7-yl}-1H-pyrazol-1-yl)piperidine-1-carboxamide]	< 0.01 µM
O=C(NCC(F)(F)F)Nc1cccc(-c2cnc3cc(-c4cnn(C5CCN(C(=O)NCc6ccccc6)CC5)c4)cnn23)c1 [Example 39, N-Benzyl-4-(4-{3-[3-({[(2,2,2-trifluoroethyl)amino]carbonyl}amino)phenyl]imidazo[1,2-b]pyridazin-7-yl}-1H-pyrazol-1-yl)piperidine-1-carboxamide]	< 0.01 µM
O=C(NCC(F)(F)F)Nc1cccc(-c2cnc3cc(-c4cnn(C5CCN(C(=O)NCC6CCCO6)CC5)c4)cnn23)c1 (stereo not shown) [Example 40, N-(tetrahydrofuran-2-ylmethyl)-4-(4-{3-[3-({[(2,2,2-trifluoroethyl)amino]carbonyl}amino)phenyl]imidazo[1,2-b]pyridazin-7-yl}-1H-pyrazol-1-yl)piperidine-1-carboxamide]	< 0.01 µM
O=C(NCC(F)(F)F)Nc1cccc(-c2cnc3cc(-c4cnn(C5CCN(C(=O)CC6CC6)CC5)c4)cnn23)c1 [Example 41, N-[3-(7-{1-[1-(Cyclopropylacetyl)piperidin-4-yl]-1H-pyrazol-4-yl}imidazo[1,2-b]pyridazin-3-yl)phenyl]-N′-(2,2,2-trifluoroethyl)urea]	< 0.01 µM

Second part, the compound after the results:

IC50	SMILES
< 0.01 µM	CC1(C(=O)N2CCC(n3cc(-c4cnn5c(-c6cccc(NC(=O)NCC(F)(F)F)c6)cnc5c4)cn3)CC2)CC1 [Example 42, N-{3-[7-(1-{1-[(1-Methylcyclopropyl)carbonyl]piperidin-4-yl}-1H-pyrazol-4-yl)imidazo[1,2-b]pyridazin-3-yl]phenyl}-N′-(2,2,2-trifluoroethyl)urea]
< 0.01 µM	O=C(NCC(F)(F)F)Nc1cccc(-c2cnc3cc(-c4cnn(C5CCN(C(=O)C6(O)CC6)CC5)c4)cnn23)c1 [Example 43, N-{3-[7-(1-{1-[(1-hydroxycyclopropyl)carbonyl]piperidin-4-yl}-1H-pyrazol-4-yl)imidazo[1,2-b]pyridazin-3-yl]phenyl}-N′-(2,2,2-trifluoroethyl)urea]
< 0.01 µM	N#CCC(=O)N1CCC(n2cc(-c3cnn4c(-c5cccc(NC(=O)NCC(F)(F)F)c5)cnc4c3)cn2)CC1 [Example 44, N-[3-(7-{1-[1-(Cyanoacetyl)piperidin-4-yl]-1H-pyrazol-4-yl}imidazo[1,2-b]pyridazin-3-yl)phenyl]-N′-(2,2,2-trifluoroethyl)urea]
< 0.01 µM	N#CC1(C(=O)N2CCC(n3cc(-c4cnn5c(-c6cccc(NC(=O)NCC(F)(F)F)c6)cnc5c4)cn3)CC2)CC1 [Example 45, N-{3-[7-(1-{1-[(1-Cyanocyclopropyl)carbonyl]piperidin-4-yl}-1H-pyrazol-4-yl)imidazo[1,2-b]pyridazin-3-yl]phenyl}-N′-(2,2,2-trifluoroethyl)urea]
< 0.01 µM	O=C(NCC(F)(F)F)Nc1cccc(-c2cnc3cc(-c4cnn(C5CCN(C(=O)CCC6CC6)CC5)c4)cnn23)c1 [Example 46, N-[3-(7-{1-[1-(3-Cyclopropylpropanoyl)piperidin-4-yl]-1H-pyrazol-4-yl}imidazo[1,2-b]pyridazin-3-yl)phenyl]-N′-(2,2,2-trifluoroethyl)urea]
< 0.01 µM	O=C(NCC(F)(F)F)Nc1cccc(-c2cnc3cc(-c4cnn(C5CCN(C(=O)C6CC(O)C6)CC5)c4)cnn23)c1 (stereo not shown) [Example 47, N-{3-[7-(1-{1-[(3-hydroxycyclobutyl)carbonyl]piperidin-4-yl}-1H-pyrazol-4-yl)imidazo[1,2-b]pyridazin-3-yl]phenyl}-N′-(2,2,2-trifluoroethyl)urea]
< 0.01 µM	O=C(NCC(F)(F)F)Nc1cccc(-c2cnc3cc(-c4cnn(C5CCN(C(=O)C6CCOC6)CC5)c4)cnn23)c1 (stereo not shown) [Example 48, N-[3-(7-{1-[1-(tetrahydrofuran-3-ylcarbonyl)piperidin-4-yl]-1H-pyrazol-4-yl}imidazo[1,2-b]pyridazin-3-yl)phenyl]-N′-(2,2,2-trifluoroethyl)urea]
< 0.01 µM	O=C(NCC(F)(F)F)Nc1cccc(-c2cnc3cc(-c4cnn(C5CCN(C(=O)C(O)C(F)(F)F)CC5)c4)cnn23)c1 (stereo not shown) [Example 49, N-(2,2,2-trifluoroethyl)-N′-[3-(7-{1-[1-(3,3,3-trifluoro-2-hydroxypropanoyl)piperidin-4-yl]-1H-pyrazol-4-yl}imidazo[1,2-b]pyridazin-3-yl)phenyl]urea]
< 0.01 µM	O=C(NCC(F)(F)F)Nc1cccc(-c2cnc3cc(-c4cnn(C5CCN(C(=O)CC6CCCO6)CC5)c4)cnn23)c1 (stereo not shown) [Example 50, N-[3-(7-{1-[1-(tetrahydrofuran-2-ylacetyl)piperidin-4-yl]-1H-pyrazol-4-yl}imidazo[1,2-b]pyridazin-3-yl)phenyl]-N′-(2,2,2-trifluoroethyl)urea]
< 0.01 µM	O=C(NCC(F)(F)F)Nc1cccc(-c2cnc3cc(-c4ccc(N5CCN(C(=O)N6CCCC6)CC5)nc4)cnn23)c1 [Example 53, N-[3-(7-{6-[4-(pyrrolidin-1-ylcarbonyl)piperazin-1-yl]pyridin-3-yl}imidazo[1,2-b]pyridazin-3-yl)phenyl]-N′-(2,2,2-trifluoroethyl)urea]
< 0.01 µM	CC(C(=O)NC1CC1)n1cc(-c2cnn3c(-c4cccc(NC(=O)NCC(F)(F)F)c4)cnc3c2)cn1 (stereo not shown) [Example 54, N-Cyclopropyl-2-(4-{3-[3-({[(2,2,2-trifluoroethyl)amino]carbonyl}amino)phenyl]imidazo[1,2-b]pyridazin-7-yl}-1H-pyrazol-1-yl)propanamide]
< 0.01 µM	CNC(=O)C(C)n1cc(-c2cnn3c(-c4cccc(NC(=O)NCC(F)(F)F)c4)cnc3c2)cn1 (stereo not shown) [Example 55, N-Methyl-2-(4-{3-[3-({[(2,2,2-trifluoroethyl)amino]carbonyl}amino)phenyl]imidazo[1,2-b]pyridazin-7-yl}-1H-pyrazol-1-yl)propanamide]
< 0.01 µM	CC(C(=O)N(C)C)n1cc(-c2cnn3c(-c4cccc(NC(=O)NCC(F)(F)F)c4)cnc3c2)cn1 (stereo not shown) [Example 56, N,N-Dimethyl-2-(4-{3-[3-({[(2,2,2-trifluoroethyl)amino]carbonyl}amino)phenyl]imidazo[1,2-b]pyridazin-7-yl}-1H-pyrazol-1-yl)propanamide]
